Assay [1] deals with T1, AtPPO1 S305L Y361T V365L T431R L479M (SEQ ID NO.130) (Arabidopsis thaliana, UniProt P55826, L479M/S305L/T431R/V365L/Y361T).
T1 construct: made in house; host or cells: E. coli BL21 (DE3) hemG, crude extract
T1 sequence (P55826 35-537 S305L/Y361T/V365L/T431R/L479M): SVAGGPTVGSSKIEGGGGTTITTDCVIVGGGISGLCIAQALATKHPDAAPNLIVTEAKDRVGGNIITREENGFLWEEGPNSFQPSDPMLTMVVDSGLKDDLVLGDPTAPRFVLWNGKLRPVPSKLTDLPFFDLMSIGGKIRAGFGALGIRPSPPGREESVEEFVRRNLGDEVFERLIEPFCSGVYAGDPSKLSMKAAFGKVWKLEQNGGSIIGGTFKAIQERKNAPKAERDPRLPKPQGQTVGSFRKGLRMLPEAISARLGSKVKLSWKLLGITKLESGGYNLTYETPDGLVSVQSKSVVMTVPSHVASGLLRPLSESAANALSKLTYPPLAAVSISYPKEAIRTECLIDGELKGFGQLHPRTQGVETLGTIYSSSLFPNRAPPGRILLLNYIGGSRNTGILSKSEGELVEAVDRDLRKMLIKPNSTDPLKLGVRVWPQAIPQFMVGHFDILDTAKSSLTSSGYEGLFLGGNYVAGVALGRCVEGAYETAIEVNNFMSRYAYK
Put plainly: fluorescent Protoporphyrinogen Oxidase assay, crude extract. Format: biochemical. As to conditions: read-out: percentage inhibition.

Another assay has as its target T2, WT (SEQ ID NO.1) AtPPO1 (Arabidopsis thaliana, UniProt P55826).
T2 construct: made in house; host or cells: E. coli BL21 (DE3) hemG, crude extract
T2 sequence (P55826 35-537): T1 sequence (P55826 35-537 S305L/Y361T/V365L/T431R/L479M) with L271S, T327Y, L331V, R397T, M445L
The assay is described as above. Format: biochemical. Conditions: read-out: percentage inhibition.

Positions count from the first letter of the chain named.

Broadly, the inhibition is how much of the control response was suppressed. Turning to `C#CCN1C(=O)C(F)(F)Oc2cc(F)c(-n3c(=O)n(C)c(=S)n(C)c3=O)cc21` [Herbicide B, trifludimoxazin], in assay [1], the inhibition at 0.1 ppm worked out at 41%, the inhibition at 1 ppm is 100%, the inhibition at 10 ppm worked out at 97% and the inhibition at 100 ppm is 98%. Moreover, at WT (SEQ ID NO.1) AtPPO1, the inhibition at 0.1 ppm stood at 97%, the inhibition at 1 ppm was found to be 97%, the inhibition at 10 ppm stood at 96% and the inhibition at 100 ppm is 100%.

Take `CCOC(=O)C1(C)CC(c2cc(-n3c(=O)cc(C(F)(F)F)n(C)c3=O)c(F)cc2Cl)=NO1` (stereo not drawn) [Herbicide C, 3-(2-chloro-4-fluoro-5-(3-methyl-2,6-dioxo-4-trifluoromethyl-3,6-dihydropyrimidin-1(2H)-yl)phenyl)-5-methyl-4,5-dihydroisoxazole-5-carboxylic acid ethyl ester]: in assay [1], the inhibition at 1 ppm stood at 78%, the inhibition at 10 ppm came to 99% and the inhibition at 100 ppm came out at 97%. For the same molecule, at WT (SEQ ID NO.1) AtPPO1, the inhibition at 0.1 ppm turned out to be 91%, the inhibition at 1 ppm worked out at 91%, the inhibition at 10 ppm is 98% and the inhibition at 100 ppm was 93%.

As for `CCOC(=O)COc1ncccc1Oc1cc(-n2c(=O)cc(C(F)(F)F)n(C)c2=O)c(F)cc1Cl` [Herbicide A, epyrifenacil], in assay [1], the inhibition at 0.1 ppm amounted to 15%, the inhibition at 1 ppm amounted to 69%, the inhibition at 10 ppm was determined as 99% and the inhibition at 100 ppm was 94%. Besides, on WT (SEQ ID NO.1) AtPPO1, the inhibition at 0.1 ppm stood at 94%, the inhibition at 1 ppm came out at 100%, the inhibition at 10 ppm stood at 97% and the inhibition at 100 ppm stood at 100%.

On to `CCOC(=O)[C@]1(C)CC(c2cc(-n3c(=O)n(C)c(=S)n(C)c3=O)c(F)cc2Cl)=NO1` [Herbicide D, ethyl (5S)-3-[2-chloro-5-(3,5-dimethyl-2,6-dioxo-4-thioxo-1,3,5-triazinan-1-yl)-4-fluoro-phenyl]-5-methyl-4H-isoxazole-5-carboxylate], for which, in assay [1], the inhibition at 0.1 ppm was 12%, the inhibition at 1 ppm amounted to 42%, the inhibition at 10 ppm stood at 89% and the inhibition at 100 ppm was found to be 92%. On WT (SEQ ID NO.1) AtPPO1, the inhibition at 0.1 ppm was 91%, the inhibition at 1 ppm was found to be 90%, the inhibition at 10 ppm was found to be 96% and the inhibition at 100 ppm turned out to be 100%.

For the molecule `CC(C)N(C)S(=O)(=O)NC(=O)c1cc(-n2c(=O)cc(C(F)(F)F)n(C)c2=O)c(F)cc1Cl` [Herbicide E, saflufenacil], in assay [1], the inhibition at 0.1 ppm stood at 9%, the inhibition at 1 ppm stood at 45%, the inhibition at 10 ppm stood at 82% and the inhibition at 100 ppm was found to be 91%. Moreover, on WT (SEQ ID NO.1) AtPPO1, the inhibition at 0.1 ppm stood at 91%, the inhibition at 1 ppm is 97%, the inhibition at 10 ppm was determined as 100% and the inhibition at 100 ppm is 100%.

These data come from patent US20260297542A1, “HERBICIDE RESISTANT PLANTS” (SYNGENTA CROP PROTECTION AG, priority 2023, published 2026).
